Blank lines part the entries; values can stand above or below the compound they belong to.
Key:
Format in all cases: cell-based
[1] = tested on: Escherichia hermannii 04 03 161; assay: pH variation detection on modified chromID Coli medium (Example 6); parameters: Coloration strength: key to the marks not given beside the values; details: 50 mg/l, 24 h 37° C.
Procedure: (§1) The media were incubated for 24 hours at 37° C., then the spots formed were examined visually.

[2] = tested on: Salmonella ser. Enteritidis 94 06 001; assay: as above; parameters: Coloration strength: key to the marks not given beside the values; details: 50 mg/l, 24 h 37° C.
Procedure: as §1

[3] = tested on: Proteus vulgaris 04 05 062; assay: as above; parameters: Coloration strength: key to the marks not given beside the values; details: 50 mg/l, 24 h 37° C.
Procedure: as §1

[4] = tested on: Shigella flexneri 92 11 059; assay: as above; parameters: Coloration strength: key to the marks not given beside the values; details: 50 mg/l, 24 h 37° C.
Procedure: as §1

[5] = tested on: E. coli 05 06 043; assay: as above; parameters: Coloration strength: key to the marks not given beside the values; details: 50 mg/l, 24 h 37° C.
Procedure: as §1

[6] = tested on: Leclercia adecarboxylata 97 04 041; assay: as above; parameters: Coloration strength: key to the marks not given beside the values; details: 50 mg/l, 24 h 37° C.
Procedure: as §1

[7] = tested on: Kluyvera ascorbata 84 08 084; assay: as above; parameters: Coloration strength: key to the marks not given beside the values; details: 50 mg/l, 24 h 37° C.
Procedure: as §1

[8] = tested on: Proteus mirabilis 04 05 048; assay: as above; parameters: Coloration strength: key to the marks not given beside the values; details: 50 mg/l, 24 h 37° C.
Procedure: as §1

[9] = tested on: Shigella sonnei 92 11 060; assay: as above; parameters: Coloration strength: key to the marks not given beside the values; details: 50 mg/l, 24 h 37° C.
Procedure: as §1

[10] = tested on: Citrobacter braakii 05 06 109; assay: as above; parameters: Coloration strength: key to the marks not given beside the values; details: 50 mg/l, 24 h 37° C.
Procedure: as §1

[11] = tested on: Edwarsiella tarda 75 07 053; assay: as above; parameters: Coloration strength: key to the marks not given beside the values; details: 50 mg/l, 24 h 37° C.
Procedure: as §1

[12] = tested on: Salmonella spp 93 03 001; assay: as above; parameters: Coloration strength: key to the marks not given beside the values; details: 50 mg/l, 24 h 37° C.
Procedure: as §1

[13] = tested on: Serratia liquefaciens 05 04 117; assay: as above; parameters: Coloration strength: key to the marks not given beside the values; details: 50 mg/l, 24 h 37° C.
Procedure: as §1

[14] = tested on: Ewingella americana 05 06 045; assay: as above; parameters: Coloration strength: key to the marks not given beside the values; details: 50 mg/l, 24 h 37° C.
Procedure: as §1

[15] = tested on: Citrobacter freundii 05 04 165; assay: as above; parameters: Coloration strength: key to the marks not given beside the values; details: 50 mg/l, 24 h 37° C.
Procedure: as §1

[16] = tested on: E. coli 05 04 163; assay: as above; parameters: Coloration strength: key to the marks not given beside the values; details: 50 mg/l, 24 h 37° C.
Procedure: as §1

[17] = tested on: Salmonella ser. Typhimurium 81 12 010; assay: as above; parameters: Coloration strength: key to the marks not given beside the values; details: 50 mg/l, 24 h 37° C.
Procedure: as §1

[18] = tested on: Enterobacter cloacae 05 09 064; assay: as above; parameters: Coloration strength: key to the marks not given beside the values; details: 50 mg/l, 24 h 37° C.
Procedure: as §1

[19] = tested on: Providencia rettgeri 88 05 064; assay: as above; parameters: Coloration strength: key to the marks not given beside the values; details: 50 mg/l, 24 h 37° C.
Procedure: as §1

[20] = tested on: E. coli 77 05 035; assay: as above; parameters: Coloration strength: key to the marks not given beside the values; details: 50 mg/l, 24 h 37° C.
Procedure: as §1

[21] = tested on: Klebsiella pneumoniae ssp pneumoniae 73 08 012; assay: as above; parameters: Coloration strength: key to the marks not given beside the values; details: 50 mg/l, 24 h 37° C.
Procedure: as §1

[22] = tested on: Cedecea lapagei 05 04 130; assay: as above; parameters: Coloration strength: key to the marks not given beside the values; details: 50 mg/l, 24 h 37° C.
Procedure: as §1

[23] = tested on: Pseudomonas aeruginosa 89 09 041; assay: as above; details: 50 mg/l, 24 h 37° C.
Procedure: as §1

[24] = tested on: Candida albicans ATCC 90 028; assay: Peptidase detection on Columbia medium (Example 2); parameters: key to Growth: NG: No growth; 0.5: weak growth; 1: moderate growth; 2: good growth; key to Fluo. / Color / Color post-acid.: —: no color; details: 40 mg in 400 ml Columbia; 24 h 37° C.
Procedure: (§2) The 6 media were distributed into Petri dishes 90 mm in diameter, in a proportion of 20 ml per dish.
(§3) Seventeen strains of microorganisms stemming from collections and belonging to various species of bacteria and yeasts are inoculated in spots of approximately 10 000 colony-forming units.
(§4) The media are incubated for 24 hours at 37° C., and then the colonies formed are examined visually, with or without the addition of acid and under a UV lamp at 365 nm.

[25] = tested on: Bacillus subtilis NCTC 9 372; assay: Peptidase detection on Columbia medium (Example 2); parameters: key to Growth: NG: No growth; 0.5: weak growth; 1: moderate growth; 2: good growth; key to Fluo. / Color / Color post-acid.: —: no color; details: 40 mg in 400 ml Columbia; 24 h 37° C.
Procedure: as §2, §3, §4

[26] = tested on: Listeria monocytogenes NCTC 11 994; assay: Peptidase detection on Columbia medium (Example 2); parameters: key to Growth: NG: No growth; 0.5: weak growth; 1: moderate growth; 2: good growth; key to Fluo. / Color / Color post-acid.: —: no color; details: 40 mg in 400 ml Columbia; 24 h 37° C.
Procedure: as §2, §3, §4

SMILES: Nc1ccc(C=Cc2ccnc3ccccc23)cc1
Color [1]: Orange
Coloration strength [1]: ++
Growth ([1]; control C: ++): ++
Color [2]: Orange
Coloration strength [2]: ++
Growth ([2]; control C: ++): ++
Color [3]: Orange
Coloration strength [3]: ++
Growth ([3]; control C: ++): ++
Color [4]: Orange
Coloration strength [4]: ++
Growth ([4]; control C: ++): ++
Color [5]: Orange
Coloration strength [5]: ++
Growth ([5]; control C: ++): ++
Color [6]: Orange
Coloration strength [6]: ++
Growth ([6]; control C: ++): ++
Color [7]: Orange
Coloration strength [7]: ++
Growth ([7]; control C: ++): ++
Color [8]: Orange
Coloration strength [8]: ++
Growth ([8]; control C: ++): ++
Color [9]: Orange
Coloration strength [9]: ++
Growth ([9]; control C: ++): ++
Color [10]: Orange
Coloration strength [10]: ++
Growth ([10]; control C: ++): ++
Color [11]: Orange
Coloration strength [11]: ++
Growth ([11]; control C: ++): ++
Color [12]: Orange
Coloration strength [12]: ++
Growth ([12]; control C: ++): ++
Color [13]: Orange
Coloration strength [13]: ++
Growth ([13]; control C: ++): ++
Color [14]: Orange
Coloration strength [14]: ++
Growth ([14]; control C: ++): ++
Color [15]: Orange
Coloration strength [15]: ++
Growth ([15]; control C: ++): ++
Color [16]: Orange
Coloration strength [16]: ++
Growth ([16]; control C: ++): ++
Color [17]: Orange
Coloration strength [17]: ++
Growth ([17]; control C: ++): ++
Color [18]: Orange
Coloration strength [18]: ++
Growth ([18]; control C: ++): ++
Color [19]: Orange
Coloration strength [19]: ++
Growth ([19]; control C: ++): ++
Color [20]: Orange
Coloration strength [20]: ++
Growth ([20]; control C: ++): ++
Color [21]: Orange
Coloration strength [21]: ++
Growth ([21]; control C: ++): ++
Color [22]: Orange
Coloration strength [22]: ++
Growth ([22]; control C: ++): ++
Coloration strength [23]: −
Growth ([23]; control C: ++): +

Color [25]: —
Growth [25]: 2
Color [26]: —
Growth [26]: 2
SMILES: C[C@H](N)C(=O)N[C@@H](C)C(=O)N[C@@H](C)C(=O)Nc1ccc(C=Cc2cc[n+](C)c3ccccc23)cc1.Cl.[Cl-] [Tri-Ala-ASQM^+, L-alanyl-L-alanyl-L-alanyl-4-(4′-amidostyryl)-N-methylquinolinium (dichloride)]
Color [24]: —
Growth [24]: 2
